The source of these data is patent publication US7169789B2 (Kirin Beer Kabushiki Kaisha, priority 1999, dated 2007).

Assay [1] has as its target T1, human KDR (Homo sapiens, UniProt P35968).
T1 construct: expressed in transfected cells; host or cells: NIH 3T3 cells (Sawano A et al., Cell Growth & Differentiation 7, 213-221 (1996))
In words: Inhibitory activity against KDR phosphorylation by ELISA. Format: cell-based. The conditions noted are these: NIH 3T3 cells transfected with human KDR, VEGF 100 ng/ml. On the procedure: Measurement of Inhibitory Activity Against KDR Phosphorylation by ELISA
NIH 3T3 cells (Sawano A et al., Cell Growth & Differentation, 7, 213–221 (1996), “Flt-1 but not KDR/Flk-1 tyrosine kinase is a receptor for placenta growth factor, which is related to vascular endothelial growth factor”) prepared by transfection of human KDR were cultured in a DMEM medium containing 10% fetal calf serum (purchased from GIBCO BRL) within a 5% carbon dioxide incubator until 50 to 70% confluent. The harvested cells were inoculated into wells, containing the same medium, in a collagen-type one-coat 96-well flat-bottom plate in an amount of 1.5×10^4 per well, followed by cultivation at 37° C. overnight. The medium was then replaced by a DMEM medium containing 0.1% fetal calf serum. A solution of the test compound in dimethyl sulfoxide was added to each well, and the cultivation was continued at 37° C. for additional one hr. A human recombinant vascular endothelial growth factor (hereinafter abbreviated to “VEGF”) was added to a final concentration of 100 ng/ml, and the stimulation of cells was carried out at 37° C. for 2 min. The medium was removed, the cells were washed with phosphate buffered saline (pH 7.4), and 50 μl of a solubilization buffer (20 mM HEPES (pH 7.4), 150 mM NaCl, 0.2% Triton X-100, 10% glycerol, 5 mM sodium orthovanadylate, 5 mM disodium ethylenediaminetetraacetate, and 2 mM Na4P2O7) was then added thereto. The mixture was shaken at 4° C. for 2 hr to prepare a cell extract.
Separately, phosphate buffered saline (50 μl, pH 7.4) containing […] of anti-phospho-tyrosine antibody (PY20; purchased from Transduction Laboratories) was added to a microplate for ELISA (Maxisorp; purchased from NUNC), followed by standing at 4° C. overnight to form a solid phase on the wells. After washing of the plate, 300 μl of a blocking solution was added, followed by standing at room temperature for 2 hr to perform blocking. After washing, the whole quantity of the cell extract was transferred to the wells, and the plate was then allowed to stand at 4° C. overnight. After washing, an anti-KDR antibody (purchased from Santa Cruz) was allowed to react at room temperature for one hr, and, after washing, a peroxidase-labeled anti-rabbit Ig antibody (purchased from Amersham) was allowed to react at room temperature for one hr. After washing, a chromophoric substrate for peroxidase (purchased from Sumitomo Bakelite Co., Ltd.) was added thereto to initiate a reaction. After a suitable level of color development, a reaction termination solution was added to stop the reaction, and the absorbance at 450 nm was measured with a microplate reader. The KDR phosphorylation activity for each well was determined by presuming the absorbance with the addition of VEGF and without the addition of the medicament to be 100% KDR phosphorylation activity and the absorbance without the medicament and VEGF to be 0% KDR phosphorylation activity. The concentration of the test compound was varied on several levels, the inhibition (%) of KDR phosphorylation was determined for each case, and the concentration of the test compound necessary for inhibiting 50% of KDR phosphorylation (IC50) was calculated.

Assay [2] deals with Human glioma cells GL07. As to the kind of experiment: Antitumor effect on human glioma cells (GL07) transplanted into nude mice. The assay is classed as in vivo. The conditions noted are these: Mus musculus, Glioma cell, 216 h, GL07, oral, 20 mg/kg once a day for 9 days, read-out: TGIR, % (tumor growth inhibition rate). On the procedure: Antitumor Effect on Human Glioma Cells (GL07)
Human glioma cells GL07 (obtained from Central Laboratories for Experimental Animals) were transplanted into nude mice. When the tumor volume became about 100 mm^3, the mice were grouped. In this case, grouping was carried out so that each group consisted of four mice and the average tumor volume was even among the groups. The test compound was orally or intraperitoneally administered at a dose of 20 mg/kg to the test groups every day once a day for 9 days, while the medium was administered to the control group in the manner as in the test groups. The tumor growth inhibition rate (TGIR) was calculated as follows: The tumor growth inhibition rate (TGIR)=(1−Tx/Cx)×100 wherein Cx represents the volume of tumor at day x for the control group when the tumor volume at the day of the start of the administration was presumed to be 1; and Tx represents the volume of tumor for test compound administration groups.

Molecules are shown by their SMILES.

T1 sequence (P35968 20-1356): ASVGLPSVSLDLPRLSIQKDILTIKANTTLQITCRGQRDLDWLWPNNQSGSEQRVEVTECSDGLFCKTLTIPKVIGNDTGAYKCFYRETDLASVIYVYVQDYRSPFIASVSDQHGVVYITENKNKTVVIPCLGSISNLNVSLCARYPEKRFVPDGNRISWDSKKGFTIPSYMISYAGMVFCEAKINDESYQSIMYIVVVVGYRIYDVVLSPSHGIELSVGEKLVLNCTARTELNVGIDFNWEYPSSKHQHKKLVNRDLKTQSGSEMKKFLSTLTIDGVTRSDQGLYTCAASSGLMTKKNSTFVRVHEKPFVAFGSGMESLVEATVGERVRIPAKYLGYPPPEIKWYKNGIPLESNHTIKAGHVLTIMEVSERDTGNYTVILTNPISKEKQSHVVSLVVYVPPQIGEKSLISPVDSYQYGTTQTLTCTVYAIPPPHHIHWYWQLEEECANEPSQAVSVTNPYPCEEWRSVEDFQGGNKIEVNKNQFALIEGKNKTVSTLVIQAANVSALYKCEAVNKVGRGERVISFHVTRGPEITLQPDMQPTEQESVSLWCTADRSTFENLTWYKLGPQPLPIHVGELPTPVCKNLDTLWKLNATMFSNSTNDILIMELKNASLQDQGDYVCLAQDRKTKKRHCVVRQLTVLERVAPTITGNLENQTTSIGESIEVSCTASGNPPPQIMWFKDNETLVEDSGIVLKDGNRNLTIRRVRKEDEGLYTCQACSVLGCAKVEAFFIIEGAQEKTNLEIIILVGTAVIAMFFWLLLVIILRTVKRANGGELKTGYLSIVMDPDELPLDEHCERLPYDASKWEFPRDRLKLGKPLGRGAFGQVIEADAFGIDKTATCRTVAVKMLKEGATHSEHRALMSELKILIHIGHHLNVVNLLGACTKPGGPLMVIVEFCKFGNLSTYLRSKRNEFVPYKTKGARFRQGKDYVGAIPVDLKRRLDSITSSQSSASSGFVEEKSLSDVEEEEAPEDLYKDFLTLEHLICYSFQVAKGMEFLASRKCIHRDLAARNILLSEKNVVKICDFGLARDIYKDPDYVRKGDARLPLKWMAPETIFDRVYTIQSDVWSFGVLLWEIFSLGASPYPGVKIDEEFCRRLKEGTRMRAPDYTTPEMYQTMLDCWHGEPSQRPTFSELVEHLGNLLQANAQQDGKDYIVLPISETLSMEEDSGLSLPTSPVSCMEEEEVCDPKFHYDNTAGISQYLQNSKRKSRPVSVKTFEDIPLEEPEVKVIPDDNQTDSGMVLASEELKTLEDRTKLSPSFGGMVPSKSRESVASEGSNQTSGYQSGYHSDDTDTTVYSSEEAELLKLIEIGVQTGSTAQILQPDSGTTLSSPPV

The molecule `CCCNC(=O)Nc1ccc(Oc2ccnc3cc(OCCCCn4ccnn4)c(OC)cc23)cc1Cl` [Example 158, N-[2-Chloro-4-({6-methoxy-7-[4-(1H-1,2,3-triazol-1-yl)butoxy]-4-guinolyl}oxy)phenyl]-N′-propylurea] displayed an IC50 in assay [1] of 1.6 nM. Moreover, the inhibition in vivo at 20 mg/kg in assay [2] is 39%.
On to `CCCNC(=O)Nc1ccc(Oc2ccnc3cc(OCCCCCn4ccnn4)c(OC)cc23)cc1Cl` [Example 159, N-{2-chloro-4-[(6-methoxy-7-{[5-(1H-1,2,3-triazol-1-yl)pentyl]oxy}-4-quinolyl)oxy]phenyl}-N′-propylurea], for which the IC50 in assay [1] turned out to be 1.9 nM. The inhibition in vivo at 20 mg/kg in assay [2] is 40%.
The matching figures for `CCCNC(=O)Nc1ccc(Oc2ncnc3cc(OC)c(OCCCN4CCN(C)CC4)cc23)cc1Cl` [Example 137, N-[2-Chloro-4-({7-methoxy-6-[3-(4-methylpiperazino)propoxy]-4-quinazolinyl}oxy)phenyl]-N′-propylurea]: 24 nM and 20%.
Regarding `CCNC(=O)Nc1ccc(Oc2ncnc3cc(OCCCN4CCCCC4)c(OC)cc23)cc1Cl` [Example 185, N-(2-chloro-4-{[6-methoxy-7-(3-piperidinopropoxy)-4-quinazolinyl]oxy}phenyl)-N′-ethylurea], the IC50 in assay [1] was 0.5 nM. The inhibition in vivo at 20 mg/kg in assay [2] was 59%.
The matching figures for `CCCNC(=O)Nc1ccc(Oc2ncnc3cc(OCCCO)c(OC)cc23)cc1Cl` [Example 121, N-(2-Chloro-4-{(7-(3-hydroxypropoxy)-6-methoxy-4-quinazolinyl]oxy}phenyl)-N′-propylurea]: 12.5 nM and 22%.
The matching figures for `COc1cc2c(Oc3ccc(NC(=O)Nc4ccc(F)cc4F)c(Cl)c3)ccnc2cc1OCCN(C)CCO` [Example 167, N-{2-Chloro-4-[(7-{2-[(2-hydroxyethyl)-(methyl)amino]ethoxy}-6-methoxy-4-guinolyl)oxy]phenyl}-N′-(2,4-difluorophenyl)urea]: 2.1 nM and 28%.
The matching figures for `COc1cc2c(Oc3ccc(NC(=O)N(C)C)c(Cl)c3)ncnc2cc1OCc1ccncc1` [Example 180, N′-(2-Chloro-4-{[6-methoxy-7-(4-pyridylmethoxy)-4-quinazolinyl]oxy}phenyl)-N,N-dimethylurea]: greater than 1000 nM and 45%.
For the molecule `CCN(CC)C(=O)Nc1ccc(Oc2ncnc3cc(OC)c(OC)cc23)cc1Cl` [Example 116, N′-{2-Chloro-4-[(6,7-dimethoxy-4-quinazolinyl)oxy]phenyl}-N,N-diethylurea], the IC50 in assay [1] was greater than 1000 nM. The inhibition in vivo at 20 mg/kg in assay [2] was 83%.
The matching figures for `CCCNC(=O)Nc1ccc(Oc2ccnc3cc(OCCN(CCO)CCO)c(OC)cc23)cc1Cl` [Example 155, N-{2-Chloro-4-[(7-{2-[di(2-hydroxyethyl)-amino]ethoxy}-6-methoxy-4-guinolyl)oxy]phenyl}-N-propylurea]: 2.1 nM and 29%.
For `CCCNC(=O)Nc1ccc(Oc2ccnc3cc(OCc4ccncc4)c(OC)cc23)cc1Cl` [Example 143, N-(2-chloro-4-{[6-methoxy-7-(4-pyridylmethoxy)-4-quinolyl]oxy}phenyl)-N′-propylurea], in that order: 3.5 nM and 53%.
In the case of `CCCNC(=O)N(C(C)=O)c1ccc(Oc2ncnc3cc(OC)c(OC)cc23)cc1Cl` [Example 110, N-Acetyl-N-{2-chloro-4-[(6,7-dimethoxy-4-quinazolinyl)oxy]phenyl}-N′-propylurea], the IC50 in assay [1] is greater than 1000 nM. In assay [2], the inhibition in vivo at 20 mg/kg turned out to be 26%.
The matching figures for `CCCNC(=O)Nc1ccc(Oc2ncnc3cc(OC)c(OCc4ccccn4)cc23)cc1Cl` [Example 138, N-(2-Chloro-4-{[7-methoxy-6-(2-pyridylmethoxy)-4-quinazolinyl]oxy}phenyl)-N′-propylurea]: 40 nM and 21%.
The matching figures for `CCCCN(C)C(=O)Nc1ccc(Oc2ncnc3cc(OC)c(OC)cc23)cc1Cl` [Example 114, N-Butyl-N′-{2-chloro-4-[(6,7-dimethoxy-4-quinazolinyl)oxy]phenyl}-N-methylurea]: greater than 1000 nM and 60%.
For `COc1cc2ncnc(Oc3ccc(NC(=O)N(C)c4ccc(Cl)cc4)c(Cl)c3)c2cc1OC` [Example 115, N′-{2-Chloro-4-[(6,7-dimethoxy-4-quinazolinyl)oxy]phenyl}-N-(4-chlorophenyl)-N-methylurea], in that order: greater than 1000 nM and 74%.
For `CCCNC(=O)Nc1ccc(Oc2ccnc3cc(OCCO)c(OC)cc23)cc1Cl` [Example 149, N-(2-chloro-4-{[7-(2-hydroxyethoxy)-6-methoxy-4-quinolyl]oxy}phenyl)-N′-propylurea], in assay [1], the IC50 was determined as 1.6 nM. For the same molecule, in assay [2], the inhibition in vivo at 20 mg/kg is 47%.
The matching figures for `CCCNC(=O)Nc1ccc(Oc2ccnc3cc(OCCn4ccnn4)c(OC)cc23)cc1Cl` [Example 145, N-[2-chloro-4-(6-methoxy-7-{[2-(1H-1,2,3-triazol-1-yl)ethoxy]-4-quinolyl}oxy)phenyl]-N′-propylurea]: 0.8 nM and 57%.
The matching figures for `COc1cc2c(Oc3ccc(NC(=O)Nc4ccc(F)cc4F)c(Cl)c3)ccnc2cc1OCCCN1CCOCC1` [Example 168, N-(2-chloro-4-{[6-methoxy-7-(3-morpholinopropoxy)-4-quinolyl]oxy}phenyl)-N′-(2,4-difluorophenyl)-urea]: 4 nM and 42%.
For `CCCNC(=O)Nc1cc(C)c(Oc2ccnc3cc(OCCCN4CCN(C)CC4)c(OC)cc23)cc1C` [Example 176, N-[4-({6-Methoxy-7-[3-(4-methylpiperazino)-propoxy]-4-guinolyl}oxy)-2,5-dimethylphenyl]-N′-propylurea], the IC50 in assay [1] was determined as 3.7 nM. In addition, in assay [2], the inhibition in vivo at 20 mg/kg is 22%.
The matching figures for `COc1cc2c(Oc3ccc(NC(=O)Nc4ccc(F)cc4F)c(Cl)c3)ncnc2cc1OCCCN1CCOCC1` [Example 163, N-(2-chloro-4-{[6-methoxy-7-(3-morpholinopropoxy)-4-quinazolinyl]oxy}phenyl)-N′-(2,4-difluorophenyl)urea]: 1.4 nM and 52%.
On to `COC(=O)COc1cc2ncnc(Oc3ccc(NC(=O)N(C)C)c(Cl)c3)c2cc1OC` [Example 181, Methyl 2-{[4-(3-chloro-4-{[(dimethylamino)carbonyl]amino}phenoxy)-6-methoxy-7-quinazolinyl]oxy}acetate], for which the IC50 in assay [1] is greater than 1000 nM. Also, the inhibition in vivo at 20 mg/kg in assay [2] was found to be 21%.
The matching figures for `COc1cc2c(Oc3ccc(NC(=O)N(C)C)c(Cl)c3)ncnc2cc1OCCCCN1CCOCC1` [Example 179, N′-(2-Chloro-4-{[6-methoxy-7-(4-morpholinobutoxy)-4-quinazolinyl]oxy}phenyl)-N,N-dimethylurea]: greater than 1000 nM and 33%.
The matching figures for `COc1cc2c(Oc3ccc(NC(=O)Nc4ccc(F)cc4F)c(Cl)c3)ncnc2cc1OCc1ccncc1` [Example 161, N-(2-Chloro-4-{[6-methoxy-7-(4-pyridylmethoxy)-4-quinazolinyl]oxy}phenyl)-N′-(2,4-difluorophenyl)urea]: 3.9 nM and 39%.
